Laboratory results published in patent US11685729B2, “C5a receptor modulators” (IDORSIA PHARMACEUTICALS LTD., priority 2018, dated 2023).

Molecular target: C5AR1 (Homo sapiens (Human), UniProt P21730)
Assay: In vitro assay: PathHunter beta-arrestin antagonist assay in CHO-K1 C5AR1 beta-arrestin cell line, stimulated with C5a agonist
Conditions: read-out: C5aR IC50; CHO-K1 C5AR1 beta-arrestin cell line; 1-10 nM C5a agonist; geometric mean values
Experimental: 5 μl Antagonist at 6-fold end concentration or DMSO control is added to assay medium and subsequently 5 μl 1-10 nM C5a agonist at 6 fold end concentration. Cells are centrifuged for 1 min at 1000 rpm and incubated for 1.5 hour in at 37° C. Plates are equilibrated at room temperature for several minutes before adding 12 μI/well Detection Reagent (PathHunter Detection Kit, DiscoverX, Cat #93-0001). Plates are centrifuged for 1 min at 1000 rpm and incubated for 45 minutes at RT before being measured on a Fluostar Optima, BMG Labtech. IC50 values are calculated from a serial dilution range of antagonist using inhouse software and given in nmol/l.
The calculated IC50 values may fluctuate depending on the daily cellular assay performance. […] Average IC50 values from several measurements are given as geometric mean values.

Sequence of C5AR1 (P21730 whole entry): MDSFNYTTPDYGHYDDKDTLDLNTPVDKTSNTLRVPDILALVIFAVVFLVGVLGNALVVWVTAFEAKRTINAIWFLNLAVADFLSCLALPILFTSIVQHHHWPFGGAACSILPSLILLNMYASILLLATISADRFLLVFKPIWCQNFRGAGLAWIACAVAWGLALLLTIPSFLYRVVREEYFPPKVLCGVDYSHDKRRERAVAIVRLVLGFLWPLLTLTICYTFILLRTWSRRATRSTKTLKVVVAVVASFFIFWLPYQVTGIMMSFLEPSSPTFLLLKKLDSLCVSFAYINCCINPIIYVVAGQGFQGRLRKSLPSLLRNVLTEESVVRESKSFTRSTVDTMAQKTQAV

| SMILES | IC50 |
| --- | --- |
| COc1ccccc1CN1C(=O)N(C2CCN(c3c(C)cccc3C)CC2)Cc2ccccc21 [Example 36, 3-[1-(2,6-Dimethyl-phenyl)-piperidin-4-yl]-1-(2-methoxy-benzyl)-3,4-dihydro-1H-quinazolin-2-one] | 199 nM |
| COc1ccccc1CN1C(=O)N(C2CCN(c3c(C)cccc3F)CC2)Cc2ccccc21 [Example 37, 3-[1-(2-Fluoro-6-methyl-phenyl)-piperidin-4-yl]-1-(2-methoxy-benzyl)-3,4-dihydro-1H-quinazolin-2-one] | 138 nM |
| N#Cc1cccc(F)c1N1CCC(N2Cc3ccccc3N(Cc3nccnc3C(F)(F)F)C2=O)CC1 [Example 38, 3-Fluoro-2-{4-[2-oxo-1-(3-trifluoromethyl-pyrazin-2-ylmethyl)-1,4-dihydro-2H-quinazolin-3-yl]-piperidin-1-yl}-benzonitrile] | 211 nM |
| COc1nccnc1CN1C(=O)N(C2CCN(c3c(F)cccc3C#N)CC2)Cc2ccccc21 [Example 39, 3-Fluoro-2-{4-[1-(3-methoxy-pyrazin-2-ylmethyl)-2-oxo-1,4-dihydro-2H-quinazolin-3-yl]-piperidin-1-yl}-benzonitrile] | 1050 nM |
| COc1nccnc1CN1C(=O)N(C2CCN(c3c(C)cccc3F)CC2)Cc2ccccc21 [Example 43, 3-[1-(2-Fluoro-6-methyl-phenyl)-piperidin-4-yl]-1-(3-methoxy-pyrazin-2-ylmethyl)-3,4-dihydro-1H-quinazolin-2-one] | 299 nM |
| Cc1cccc(F)c1N1CCC(N2Cc3ccccc3N(C(C)c3ccccc3C(F)(F)F)C2=O)CC1 (stereo not drawn) [Example 45, 3-[1-(2-Fluoro-6-methyl-phenyl)-piperidin-4-yl]-1-[1-(2-trifluoromethyl-phenyl)-ethyl]-3,4-dihydro-1H-quinazolin-2-one] | 191 nM |
| Cc1cccc(F)c1N1CCC(N2Cc3ccccc3N(Cc3ccccc3OCCN(C)C)C2=O)CC1 [Example 47, 1-[2-(2-Dimethylamino-ethoxy)-benzyl]-3-[1-(2-fluoro-6-methyl-phenyl)-piperidin-4-yl]-3,4-dihydro-1H-quinazolin-2-one] | 1660 nM |
| CC(=O)OCCOc1ccccc1CN1C(=O)N(C2CCN(c3c(C)cccc3F)CC2)Cc2ccccc21 [Example 48, Acetic acid 2-(2-{3-[1-(2-fluoro-6-methyl-phenyl)-piperidin-4-yl]-2-oxo-3,4-dihydro-2H-quinazolin-1-ylmethyl}-phenoxy)-ethyl ester] | 298 nM |
| Cc1cccc(F)c1N1CCC(N2Cc3ccccc3N(Cc3ccccc3OCCO)C2=O)CC1 [Example 50, 3-[1-(2-Fluoro-6-methyl-phenyl)-piperidin-4-yl]-1-[2-(2-hydroxy-ethoxy)-benzyl]-3,4-dihydro-1H-quinazolin-2-one] | 2560 nM |
| Cc1cccc(F)c1N1CCC(N2Cc3ccccc3N(Cc3ccccc3OC3CCC3)C2=O)CC1 [Example 52, 1-(2-Cyclobutoxy-benzyl)-3-[1-(2-fluoro-6-methyl-phenyl)-piperidin-4-yl]-3,4-dihydro-1H-quinazolin-2-one] | 69 nM |
| Cc1cccc(F)c1N1CCC(N2Cc3ccccc3N(Cc3ccccc3OCC#N)C2=O)CC1 [Example 55, (2-{3-[1-(2-Fluoro-6-methyl-phenyl)-piperidin-4-yl]-2-oxo-3,4-dihydro-2H-quinazolin-1-ylmethyl}-phenoxy)-acetonitrile] | 512 nM |
| Cc1cccc(F)c1N1CCC(N2Cc3cncnc3N(Cc3ccccc3C(F)(F)F)C2=O)CC1 [Example 64, 3-[1-(2-Fluoro-6-methyl-phenyl)-piperidin-4-yl]-1-(2-trifluoromethyl-benzyl)-3,4-dihydro-1H-pyrimido[4,5-d]pyrimidin-2-one] | 782 nM |
| Cc1cccc(F)c1N1CCC(N2Cc3nnccc3N(Cc3ccccc3C(F)(F)F)C2=O)CC1 [Example 66, 7-[1-(2-Fluoro-6-methyl-phenyl)-piperidin-4-yl]-5-(2-trifluoromethyl-benzyl)-7,8-dihydro-5H-pyrimido[5,4-c]pyridazin-6-one] | 1920 nM |

More lines, now with the values ahead:

| IC50 | SMILES |
| --- | --- |
| 43 nM | COc1ccccc1CN1C(=O)N([C@@H]2CCN(c3c(C)cccc3F)C2)Cc2ccccc21 [Example 35, 3-[(R)-1-(2-Fluoro-6-methyl-phenyl)-pyrrolidin-3-yl]-1-(2-methoxy-benzyl)-3,4-dihydro-1H-quinazolin-2-one] |
| 135 nM | COc1ccccc1C(C)N1C(=O)N(C2CCN(c3c(C)cccc3F)CC2)Cc2ccccc21 (stereo not drawn) [Example 40, 3-[1-(2-Fluoro-6-methyl-phenyl)-piperidin-4-yl]-1-[1-(2-methoxy-phenyl)-ethyl]-3,4-dihydro-1H-quinazolin-2-one] |
| 109 nM | Cc1cccc(F)c1N1CCC(N2Cc3ccnnc3N(Cc3ccccc3C(F)(F)F)C2=O)CC1 [Example 41, 6-[1-(2-Fluoro-6-methyl-phenyl)-piperidin-4-yl]-8-(2-trifluoromethyl-benzyl)-5,8-dihydro-6H-pyrimido[4,5-c]pyridazin-7-one] |
| 63 nM | Cc1cccc(F)c1N1CCC(N2Cc3ccccc3N(Cc3nccnc3C(F)(F)F)C2=O)CC1 [Example 42, 3-[1-(2-Fluoro-6-methyl-phenyl)-piperidin-4-yl]-1-(3-trifluoromethyl-pyrazin-2-ylmethyl)-3,4-dihydro-1H-quinazolin-2-one] |
| 33 nM | Cc1cccc(F)c1N1CCC(N2Cc3ccccc3N(Cc3ccccc3OC(C)C)C2=O)CC1 [Example 44, 3-[1-(2-Fluoro-6-methyl-phenyl)-piperidin-4-yl]-1-(2-isopropoxy-benzyl)-3,4-dihydro-1H-quinazolin-2-one] |
| 35 nM | CCOc1ccccc1CN1C(=O)N(C2CCN(c3c(C)cccc3F)CC2)Cc2ccccc21 [Example 46, 1-(2-Ethoxy-benzyl)-3-[1-(2-fluoro-6-methyl-phenyl)-piperidin-4-yl]-3,4-dihydro-1H-quinazolin-2-one] |
| 102 nM | COC(=O)C(c1ccccc1OC)N1C(=O)N(C2CCN(c3c(C)cccc3F)CC2)Cc2ccccc21 (stereo not drawn) [Example 49, {3-[1-(2-Fluoro-6-methyl-phenyl)-piperidin-4-yl]-2-oxo-3,4-dihydro-2H-quinazolin-1-yl}-(2-methoxy-phenyl)-acetic acid methyl ester] |
| 113 nM | Cc1cccc(F)c1N1CCC(N2Cc3ccccc3N(Cc3ccccc3OC3COC3)C2=O)CC1 [Example 51, 3-[1-(2-Fluoro-6-methyl-phenyl)-piperidin-4-yl]-1-[2-(oxetan-3-yloxy)-benzyl]-3,4-dihydro-1H-quinazolin-2-one] |
| 32 nM | Cc1cccc(F)c1N1CCC(N2Cc3ccccc3N(Cc3ccccc3OC3CCOCC3)C2=O)CC1 [Example 53, 3-[1-(2-Fluoro-6-methyl-phenyl)-piperidin-4-yl]-1-[2-(tetrahydro-pyran-4-yloxy)-benzyl]-3,4-dihydro-1H-quinazolin-2-one] |
| 66 nM | Cc1cccc(F)c1N1CCC(N2Cc3ccccc3N(Cc3ccccc3OCC3CC3)C2=O)CC1 [Example 54, 1-(2-Cyclopropylmethoxy-benzyl)-3-[1-(2-fluoro-6-methyl-phenyl)-piperidin-4-yl]-3,4-dihydro-1H-quinazolin-2-one] |
| 28 nM | Cc1cccc(F)c1N1CCC(N2Cc3ccccc3N(Cc3ccccc3C3CC3)C2=O)CC1 [Example 56, 1-(2-Cyclopropyl-benzyl)-3-[1-(2-fluoro-6-methyl-phenyl)-piperidin-4-yl]-3,4-dihydro-1H-quinazolin-2-one] |
| 24 nM | Cc1cccc(F)c1N1CCC(N2Cc3ccccc3N(Cc3ccccc3C(C)C)C2=O)CC1 [Example 57, 3-[1-(2-Fluoro-6-methyl-phenyl)-piperidin-4-yl]-1-(2-isopropyl-benzyl)-3,4-dihydro-1H-quinazolin-2-one] |
| 21 nM | Cc1cccc(F)c1N1CCC(N2Cc3nccnc3N(Cc3ccccc3C(F)(F)F)C2=O)CC1 [Example 58, 3-[1-(2-Fluoro-6-methyl-phenyl)-piperidin-4-yl]-1-(2-trifluoromethyl-benzyl)-3,4-dihydro-1H-pteridin-2-one] |
| 38 nM | Cc1cccc(F)c1N1CCC(N2Cc3ccccc3N(Cc3nccnc3OC(C)C)C2=O)CC1 [Example 59, 3-[1-(2-Fluoro-6-methyl-phenyl)-piperidin-4-yl]-1-(3-isopropoxy-pyrazin-2-ylmethyl)-3,4-dihydro-1H-quinazolin-2-one] |
| 28 nM | Cc1cccc(F)c1N1CCC(N2Cc3ccccc3N(Cc3ncccc3OC(C)C)C2=O)CC1 [Example 60, 3-[1-(2-Fluoro-6-methyl-phenyl)-piperidin-4-yl]-1-(3-isopropoxy-pyridin-2-ylmethyl)-3,4-dihydro-1H-quinazolin-2-one] |
| 36 nM | Cc1cccc(F)c1N1CCC(N2Cc3ccccc3N(Cc3cnccc3C(C)C)C2=O)CC1 [Example 61, 3-[1-(2-Fluoro-6-methyl-phenyl)-piperidin-4-yl]-1-(4-isopropyl-pyridin-3-ylmethyl)-3,4-dihydro-1H-quinazolin-2-one] |
| 38 nM | Cc1cccc(F)c1N1CCC(N2Cc3ccccc3N(Cc3nccnc3C(C)C)C2=O)CC1 [Example 62, 3-[1-(2-Fluoro-6-methyl-phenyl)-piperidin-4-yl]-1-(3-isopropyl-pyrazin-2-ylmethyl)-3,4-dihydro-1H-quinazolin-2-one] |
| 61 nM | Cc1cccc(F)c1N1CCC(N2Cc3ccccc3N(Cc3cncnc3C(C)C)C2=O)CC1 [Example 63, 3-[1-(2-Fluoro-6-methyl-phenyl)-piperidin-4-yl]-1-(4-isopropyl-pyrimidin-5-ylmethyl)-3,4-dihydro-1H-quinazolin-2-one] |
| 67 nM | Cc1cccc(F)c1N1CCC(N2Cc3ccccc3N(Cc3cccnc3C(F)(F)F)C2=O)CC1 [Example 65, 3-[1-(2-Fluoro-6-methyl-phenyl)-piperidin-4-yl]-1-(2-trifluoromethyl-pyridin-3-ylmethyl)-3,4-dihydro-1H-quinazolin-2-one] |
| 46 nM | Cc1cccc(F)c1N1CCC(N2Cc3ccccc3N(Cc3cnccc3C(F)(F)F)C2=O)CC1 [Example 67, 3-[1-(2-Fluoro-6-methyl-phenyl)-piperidin-4-yl]-1-(4-trifluoromethyl-pyridin-3-ylmethyl)-3,4-dihydro-1H-quinazolin-2-one] |
